Experimental data reported in patent US20220289715A1, “PESTICIDALLY ACTIVE PYRAZINE-AMIDE COMPOUNDS” (priority 2019, published 2022).

Columns and labels:
Format in all cases: in vivo
[1] = system: Plutella xylostella (Diamond Back Moth); assay: Example B4: Plutella xylostella, artificial diet, 24-well; details: 192 h, application rate of 200 ppm, eggs, 8 days after infestation, read-out: control in at least one of the two categories (mortality or growth inhibition)
Procedure: Example B4: Plutella xylostella (Diamond Back Moth)
24-well microtiter plates with artificial diet were treated with aqueous test solutions prepared from 10,000 ppm DMSO stock solutions by pipetting. After drying, Plutella eggs were pipetted through a plastic stencil onto a gel blotting paper and the plate was closed with it. The samples were assessed for mortality and growth inhibition in comparison to untreated samples 8 days after infestation.
(§1) The following compounds gave an effect of at least 80% control in at least one of the two categories (mortality or growth inhibition) at an application rate of 200 ppm: […]

[2] = system: Plutella xylostella (Diamondback Moth); assay: Example B9: Plutella xylostella, artificial diet, 96-well; details: 216 h, application rate of 500 ppm, eggs/L1 larvae, 9 days after infestation
Procedure: Example B9: Plutella xylostella (Diamondback Moth)
96-well microtiter plates containing artificial diet were treated with aqueous test solutions, prepared from 10,000 ppm DMSO stock solutions, by a liquid handling robot. After drying, eggs (˜30 per well) were infested onto a netted lid which was suspended above the diet. The eggs hatch and L1 larvae move down to the diet. The samples were assessed for mortality 9 days after infestation.
The following compounds gave an effect of at least 80% mortality at an application rate of 500 ppm: […]

[3] = system: Diabrotica balteata (Corn Root Worm); assay: Example B1: Diabrotica balteata, spray on maize sprouts; details: 96 h, application rate of 200 ppm, L2 larvae, 4 days after infestation, read-out: control in at least one of the two categories (mortality or growth inhibition)
Procedure: Example B1: Diabrotica balteata (Corn Root Worm)
Maize sprouts placed onto an agar layer in 24-well microtiter plates were treated with aqueous test solutions prepared from 10,000 ppm DMSO stock solutions by spraying. After drying, the plates were infested with L2 larvae (6 to 10 per well). The samples were assessed for mortality and growth inhibition in comparison to untreated samples 4 days after infestation.
as §1

[4] = system: Spodoptera littoralis (Egyptian Cotton Leaf Worm); assay: Example B6: Spodoptera littoralis, spray on cotton leaf discs; details: foliar, 72 h, application rate of 200 ppm, L1 larvae, 3 days after infestation, read-out: control in at least one of the three categories (mortality, anti-feedant effect, or growth inhibition)
Procedure: Example B6: Spodoptera littoralis (Egyptian Cotton Leaf Worm)
Cotton leaf discs were placed onto agar in 24-well microtiter plates and sprayed with aqueous test solutions prepared from 10,000 ppm DMSO stock solutions. After drying the leaf discs were infested with five L1 larvae. The samples were assessed for mortality, anti-feeding effect, and growth inhibition in comparison to untreated samples 3 days after infestation. Control of Spodoptera littoralis by a test sample is given when at least one of the categories mortality, anti-feedant effect, and growth inhibition is higher than the untreated sample.

[5] = system: Chilo suppressalis (Striped Rice Stemborer); assay: Example B3: Chilo suppressalis, artificial diet; details: 144 h, application rate of 200 ppm, L2 larvae, 6 days after infestation, read-out: control in at least one of the three categories (mortality, anti-feedant effect, or growth inhibition)
Procedure: Example B3: Chilo suppressalis (Striped Rice Stemborer)
24-well microtiter plates with artificial diet were treated with aqueous test solutions prepared from 10,000 ppm DMSO stock solutions by pipetting. After drying, the plates were infested with L2 larvae (6-8 per well). The samples were assessed for mortality, anti-feeding effect, and growth inhibition in comparison to untreated samples 6 days after infestation. Control of Chilo suppressalis by a test sample is given when at least one of the categories mortality, anti-feedant effect, and growth inhibition is higher than the untreated sample.

CC(NC(=O)c1cc(C2CC2)nc(C(F)(F)F)c1)c1nccnc1-n1nccn1 (stereo not drawn) [Compound P11, 2-cyclopropyl-N-[1-[3-(triazol-2-yl)pyrazin-2-yl]ethyl]-6-(trifluoromethyl)pyridine-4-carboxamide]
≥ 80%: percent control (mortality or growth inhibition) at 200 ppm [1] | mortality at 500 ppm [2] | percent control (mortality or growth inhibition) at 200 ppm [3] | percent control (mortality, anti-feedant effect or growth inhibition) at 200 ppm [4] | percent control (mortality, anti-feedant effect or growth inhibition) at 200 ppm [5]

Cc1cnc(C(C)NC(=O)c2cc(C(F)(F)F)cc(C(F)(F)F)c2)c(-n2nccn2)n1 (stereo not drawn) [Compound P18, N-[1-[5-methyl-3-(triazol-2-yl)pyrazin-2-yl]ethyl]-3,5-bis(trifluoromethyl)benzamide]
≥ 80%: percent control (mortality or growth inhibition) at 200 ppm [1] | percent control (mortality, anti-feedant effect or growth inhibition) at 200 ppm [5]

CC(NC(=O)c1cc(C(F)(F)F)cc(C(F)(F)F)c1)c1nccnc1-n1cc(C2CC2)nn1 (stereo not drawn) [Compound P42, N-[1-[3-(4-cyclopropyltriazol-1-yl)pyrazin-2-yl]ethyl]-3,5-bis(trifluoromethyl)benzamide]
≥ 80%: percent control (mortality or growth inhibition) at 200 ppm [1] | mortality at 500 ppm [2] | percent control (mortality, anti-feedant effect or growth inhibition) at 200 ppm [4] | percent control (mortality, anti-feedant effect or growth inhibition) at 200 ppm [5]

CC(c1nccnc1-n1nccn1)N(CC1CC1)C(=O)c1cc(C(F)(F)F)cc(C(F)(F)F)c1 (stereo not drawn) [Compound P50, N-(cyclopropylmethyl)-N-[1-[3-(triazol-2-yl)pyrazin-2-yl]ethyl]-3,5-bis(trifluoromethyl)benzamide]
≥ 80%: percent control (mortality or growth inhibition) at 200 ppm [1] | mortality at 500 ppm [2] | percent control (mortality or growth inhibition) at 200 ppm [3] | percent control (mortality, anti-feedant effect or growth inhibition) at 200 ppm [4]

Cc1cnn(-c2nccnc2C(C)NC(=O)c2cc(C(F)(F)F)cc(C(F)(F)F)c2)n1 (stereo not drawn) [Compound P1, N-[1-[3-(4-methyltriazol-2-yl)pyrazin-2-yl]ethyl]-3,5-bis(trifluoromethyl)benzamide]
≥ 80%: percent control (mortality or growth inhibition) at 200 ppm [1] | mortality at 500 ppm [2] | percent control (mortality, anti-feedant effect or growth inhibition) at 200 ppm [5]

Cc1cc(C)cc(C(=O)NC(C)c2nccnc2-n2nccn2)c1 (stereo not drawn) [Compound P24, 3,5-dimethyl-N-[1-[3-(triazol-2-yl)pyrazin-2-yl]ethyl]benzamide]
≥ 80%: mortality at 500 ppm [2]

CC(NC(=O)c1cc(C(F)(F)F)cc(C(F)(F)F)c1)c1nccnc1-n1cc(C#N)cn1 (stereo not drawn) [Compound P47, N-[1-[3-(4-cyanopyrazol-1-yl)pyrazin-2-yl]ethyl]-3,5-bis(trifluoromethyl)benzamide]
≥ 80%: percent control (mortality or growth inhibition) at 200 ppm [1] | percent control (mortality or growth inhibition) at 200 ppm [3] | percent control (mortality, anti-feedant effect or growth inhibition) at 200 ppm [4] | percent control (mortality, anti-feedant effect or growth inhibition) at 200 ppm [5]

CC(NC(=O)c1cc(OCC(F)(F)F)cc(C(F)(F)F)c1)c1nccnc1-n1nccn1 (stereo not drawn) [Compound P8, N-[1-[3-(triazol-2-yl)pyrazin-2-yl]ethyl]-3-(2,2,2-trifluoroethoxy)-5-(trifluoromethyl)benzamide]
≥ 80%: percent control (mortality or growth inhibition) at 200 ppm [1] | percent control (mortality or growth inhibition) at 200 ppm [3] | percent control (mortality, anti-feedant effect or growth inhibition) at 200 ppm [4] | percent control (mortality, anti-feedant effect or growth inhibition) at 200 ppm [5]

CC(=O)c1cn(-c2nccnc2C(C)NC(=O)c2cc(C(F)(F)F)cc(C(F)(F)F)c2)nn1 (stereo not drawn) [Compound P55, N-[1-[3-(4-acetyltriazol-1-yl)pyrazin-2-yl]ethyl]3,5-bis(trifluoromethyl)benzamide]
≥ 80%: percent control (mortality or growth inhibition) at 200 ppm [1] | percent control (mortality, anti-feedant effect or growth inhibition) at 200 ppm [5]

CC(NC(=O)c1cc(C(F)(F)F)cc(C(F)(F)F)c1)c1nccnc1-n1ccnn1 (stereo not drawn) [Compound P44, N-[1-[3-(triazol-1-yl)pyrazin-2-yl]ethyl]-3,5-bis(trifluoromethyl)benzamide]
≥ 80%: percent control (mortality or growth inhibition) at 200 ppm [1] | percent control (mortality or growth inhibition) at 200 ppm [3] | percent control (mortality, anti-feedant effect or growth inhibition) at 200 ppm [4] | percent control (mortality, anti-feedant effect or growth inhibition) at 200 ppm [5]

CC(NC(=O)c1cc(C(F)(F)F)cc(C(F)(F)F)c1)c1nccnc1-n1nnc2ccccc21 (stereo not drawn) [Compound P51, N-[1-[3-(benzotriazol-1-yl)pyrazin-2-yl]ethyl]-3,5-bis(trifluoromethyl)benzamide]
≥ 80%: percent control (mortality or growth inhibition) at 200 ppm [1] | mortality at 500 ppm [2]

CC(=O)c1cnn(-c2nccnc2C(C)NC(=O)c2cc(C(F)(F)F)cc(C(F)(F)F)c2)n1 (stereo not drawn) [Compound P57, N-[1-[3-(4-acetyltriazol-2-yl)pyrazin-2-yl]ethyl]-3,5-bis(trifluoromethyl)benzamide]
≥ 80%: percent control (mortality or growth inhibition) at 200 ppm [1] | percent control (mortality, anti-feedant effect or growth inhibition) at 200 ppm [5]

CO/N=C(\C)c1cnn(-c2nccnc2C(C)NC(=O)c2cc(C(F)(F)F)cc(C(F)(F)F)c2)n1 (stereo not drawn) [Compound P54, N-[1-[3-[4-[(E)-N-methoxy-C-methyl-carbonimidoyl]triazol-2-yl]pyrazin-2-yl]ethyl]-3,5-bis(trifluoromethyl)benzamide]
≥ 80%: percent control (mortality or growth inhibition) at 200 ppm [1] | percent control (mortality or growth inhibition) at 200 ppm [3] | percent control (mortality, anti-feedant effect or growth inhibition) at 200 ppm [4]

COc1cc(C(=O)NC(C)c2nccnc2-n2nccn2)cc(Cl)n1 (stereo not drawn) [Compound P32, 2-chloro-6-methoxy-N-[1-[3-(triazol-2-yl)pyrazin-2-yl]ethyl]pyridine-4-carboxamide]
≥ 80%: mortality at 500 ppm [2]

CC(NC(=O)c1cc(C(F)(F)F)cc(C(F)(F)F)c1)c1nccnc1-n1cccn1 (stereo not drawn) [Compound P45]
≥ 80%: percent control (mortality or growth inhibition) at 200 ppm [3]

Cc1cn(-c2nccnc2C(C)NC(=O)c2cc(C(F)(F)F)cc(C(F)(F)F)c2)nn1 (stereo not drawn) [Compound P41, N-[1-[3-(4-methyltriazol-1-yl)pyrazin-2-yl]ethyl]-3,5-bis(trifluoromethyl)benzamide]
≥ 80%: percent control (mortality or growth inhibition) at 200 ppm [1] | mortality at 500 ppm [2] | percent control (mortality, anti-feedant effect or growth inhibition) at 200 ppm [4] | percent control (mortality, anti-feedant effect or growth inhibition) at 200 ppm [5]

CC(NC(=O)c1cc(F)cc(Cl)c1)c1nccnc1-n1nccn1 (stereo not drawn) [Compound P25, 3-chloro-5-fluoro-N-[1-[3-(triazol-2-yl)pyrazin-2-yl]ethyl]benzamide]
≥ 80%: percent control (mortality or growth inhibition) at 200 ppm [1] | mortality at 500 ppm [2] | percent control (mortality or growth inhibition) at 200 ppm [3]

CC(NC(=O)c1cc(C(F)(F)F)cc(C(F)(F)F)c1)c1nccnc1-n1ncc(I)n1 (stereo not drawn) [Compound P53, N-[1-[3-(4-iodotriazol-2-yl)pyrazin-2-yl]ethyl]-3,5-bis(trifluoromethyl)benzamide]
≥ 80%: percent control (mortality or growth inhibition) at 200 ppm [1] | percent control (mortality or growth inhibition) at 200 ppm [3] | percent control (mortality, anti-feedant effect or growth inhibition) at 200 ppm [4] | percent control (mortality, anti-feedant effect or growth inhibition) at 200 ppm [5]

CC(c1nccnc1-n1cncn1)N(CC1CC1)C(=O)c1cc(C(F)(F)F)cc(C(F)(F)F)c1 (stereo not drawn) [Compound P48, N-(cyclopropylmethyl)-N-[1-[3-(1,2,4-triazol-1-yl)pyrazin-2-yl]ethyl]-3,5-bis(trifluoromethyl)benzamide]
≥ 80%: percent control (mortality or growth inhibition) at 200 ppm [1] | mortality at 500 ppm [2] | percent control (mortality or growth inhibition) at 200 ppm [3] | percent control (mortality, anti-feedant effect or growth inhibition) at 200 ppm [4]
